Assay results taken from patent publication US9326506B2, “Preparation method, agricultural composition and applications of natural brassinolide analogs” (CHENGDU NEWSUN CROPSCIENCE CO., LTD, priority 2012, dated 2016).

Tested on: rice
Test: Low temperature assay on rice seedlings
Assay type: in vivo
Method: According to a low temperature assay, we measured parameters including plant height, number of leaf, area of leaf, number of tiller, weight of root at low temperature to completely determine effects of the natural brassinolide analogues on the resistance to low temperature of a plant.
The natural brassinolide analogues, BR1, BR2, BR3, BR4, BR5 and BR6, used herein, were those prepared by the method of Example 1. Respectively the analogues were dissolved into 95% (V/V) ethanol solution, and then diluted with pure water to 1 mg/L, 0.1 mg/L, 0.01 mg/L, 0.001 mg/L and 0.0001 mg/L. In addition, pure water was used as a control.
After rice seeds were disinfected by using 5% sodium hypochlorite solution treatment, they were rinsed with distilled water until their pH>7, placed into a petri dish in a dark incubator, and cultured by using water at 30° C.±2° C. for 9 days. Then respectively the nine-day-old etiolated seedlings of rice were immersed in the above solutions containing different concentrations of the natural brassinolide analogues or pure water, and cultured at the temperature of 1° C., 2° C., 3° C., 4° C. and 5° C. for 24 hr. The parameters including plant height, area of leaf and weight of root after 3, 6, 9 and 12 days and number of leaf and number of tiller after 12 days were measured.

Question: How did the Area of leaf (0.001 mg/l, 2 °C, 6 days) turn out when C=C(C(C)C)[C@@H](O)[C@H](O)[C@@H](C)[C@H]1CCC2C3COC(=O)C4C[C@H](O)[C@H](O)C[C@]4(C)C3CC[C@@]21C (stereo partly shown) [BR3] was run?
Answer: 11.6 cm^2

Question: And the Height (0.001 mg/l, 2 °C, 6 days)?
Answer: 7.1 cm

Question: What about the Weight of root (0.001 mg/l, 2 °C, 6 days) of the same compound?
Answer: 3.0 g

Question: And the Area of leaf (0.001 mg/l, 2 °C, 9 days)?
Answer: 12 cm^2

Question: And the Height (0.001 mg/l, 2 °C, 9 days)?
Answer: 7.1 cm

Question: What about the Weight of root (0.001 mg/l, 2 °C, 9 days) of the same compound?
Answer: 3.1 g

Question: And the Area of leaf (0.001 mg/l, 2 °C, 12 days)?
Answer: 13.1 cm^2

Question: And the Height (0.001 mg/l, 2 °C, 12 days)?
Answer: 7.3 cm

Question: What about the Number of leaf (0.001 mg/l, 2 °C, 12 days) of the same compound?
Answer: 3

Question: And the Number of tiller (0.001 mg/l, 2 °C, 12 days)?
Answer: 3

Question: And the Weight of root (0.001 mg/l, 2 °C, 12 days)?
Answer: 3.9 g

Question: And the Area of leaf (0.001 mg/l, 3 °C, 3 days)?
Answer: 10 cm^2

Question: And the Height (0.001 mg/l, 3 °C, 3 days)?
Answer: 7 cm

Question: And the Weight of root (0.001 mg/l, 3 °C, 3 days)?
Answer: 2.5 g

Question: What about the Area of leaf (0.001 mg/l, 3 °C, 6 days) of the same compound?
Answer: 12 cm^2

Question: What about the Height (0.001 mg/l, 3 °C, 6 days) of the same compound?
Answer: 7.2 cm

Question: And the Weight of root (0.001 mg/l, 3 °C, 6 days)?
Answer: 2.7 g

Question: And the Area of leaf (0.001 mg/l, 3 °C, 9 days)?
Answer: 12.2 cm^2

Question: What about the Height (0.001 mg/l, 3 °C, 9 days) of the same compound?
Answer: 7.3 cm

Question: And the Weight of root (0.001 mg/l, 3 °C, 9 days)?
Answer: 2.9 g

Question: What about the Area of leaf (0.001 mg/l, 3 °C, 12 days) of the same compound?
Answer: 13 cm^2

Question: What about the Height (0.001 mg/l, 3 °C, 12 days) of the same compound?
Answer: 7.4 cm

Question: And the Number of leaf (0.001 mg/l, 3 °C, 12 days)?
Answer: 3

Question: And the Number of tiller (0.001 mg/l, 3 °C, 12 days)?
Answer: 2

Question: And the Weight of root (0.001 mg/l, 3 °C, 12 days)?
Answer: 2.9 g

Question: What about the Area of leaf (0.001 mg/l, 4 °C, 3 days) of the same compound?
Answer: 10 cm^2

Question: What about the Height (0.001 mg/l, 4 °C, 3 days) of the same compound?
Answer: 7.1 cm

Question: What about the Weight of root (0.001 mg/l, 4 °C, 3 days) of the same compound?
Answer: 2.5 g

Question: What about the Area of leaf (0.001 mg/l, 4 °C, 6 days) of the same compound?
Answer: 12 cm^2

Question: What about the Height (0.001 mg/l, 4 °C, 6 days) of the same compound?
Answer: 7.3 cm

Question: And the Weight of root (0.001 mg/l, 4 °C, 6 days)?
Answer: 2.6 g

Question: And the Area of leaf (0.001 mg/l, 4 °C, 9 days)?
Answer: 13 cm^2

Question: And the Height (0.001 mg/l, 4 °C, 9 days)?
Answer: 7.4 cm

Question: What about the Weight of root (0.001 mg/l, 4 °C, 9 days) of the same compound?
Answer: 2.9 g

Question: What about the Area of leaf (0.001 mg/l, 4 °C, 12 days) of the same compound?
Answer: 13.1 cm^2

Question: And the Height (0.001 mg/l, 4 °C, 12 days)?
Answer: 7.5 cm

Question: What about the Number of leaf (0.001 mg/l, 4 °C, 12 days) of the same compound?
Answer: 3

Question: And the Number of tiller (0.001 mg/l, 4 °C, 12 days)?
Answer: 2

Question: And the Weight of root (0.001 mg/l, 4 °C, 12 days)?
Answer: 2.9 g

Question: And the Area of leaf (0.001 mg/l, 5 °C, 3 days)?
Answer: 10.2 cm^2

Question: What about the Height (0.001 mg/l, 5 °C, 3 days) of the same compound?
Answer: 7.2 cm

Question: What about the Weight of root (0.001 mg/l, 5 °C, 3 days) of the same compound?
Answer: 2.8 g

Question: And the Area of leaf (0.001 mg/l, 5 °C, 6 days)?
Answer: 14 cm^2

Question: What about the Height (0.001 mg/l, 5 °C, 6 days) of the same compound?
Answer: 7.5 cm

Question: And the Weight of root (0.001 mg/l, 5 °C, 6 days)?
Answer: 2.9 g

Question: And the Area of leaf (0.001 mg/l, 5 °C, 9 days)?
Answer: 15.4 cm^2

Question: And the Height (0.001 mg/l, 5 °C, 9 days)?
Answer: 7.8 cm

Question: What about the Weight of root (0.001 mg/l, 5 °C, 9 days) of the same compound?
Answer: 3.0 g

Question: And the Area of leaf (0.001 mg/l, 5 °C, 12 days)?
Answer: 16 cm^2

Question: What about the Height (0.001 mg/l, 5 °C, 12 days) of the same compound?
Answer: 7.9 cm

Question: What about the Number of leaf (0.001 mg/l, 5 °C, 12 days) of the same compound?
Answer: 3

Question: And the Number of tiller (0.001 mg/l, 5 °C, 12 days)?
Answer: 3

Question: And the Weight of root (0.001 mg/l, 5 °C, 12 days)?
Answer: 3.7 g

Question: And the Area of leaf (0.01 mg/l, 1 °C, 3 days)?
Answer: 10 cm^2

Question: And the Height (0.01 mg/l, 1 °C, 3 days)?
Answer: 7.0 cm

Question: What about the Weight of root (0.01 mg/l, 1 °C, 3 days) of the same compound?
Answer: 2.8 g

Question: And the Area of leaf (0.01 mg/l, 1 °C, 6 days)?
Answer: 11.6 cm^2

Question: And the Height (0.01 mg/l, 1 °C, 6 days)?
Answer: 7.1 cm

Question: What about the Weight of root (0.01 mg/l, 1 °C, 6 days) of the same compound?
Answer: 3.0 g

Question: And the Area of leaf (0.01 mg/l, 1 °C, 9 days)?
Answer: 12.4 cm^2

Question: And the Height (0.01 mg/l, 1 °C, 9 days)?
Answer: 7.4 cm

Question: What about the Weight of root (0.01 mg/l, 1 °C, 9 days) of the same compound?
Answer: 3.1 g

Question: What about the Area of leaf (0.01 mg/l, 1 °C, 12 days) of the same compound?
Answer: 13.6 cm^2

Question: And the Height (0.01 mg/l, 1 °C, 12 days)?
Answer: 7.5 cm

Question: What about the Number of leaf (0.01 mg/l, 1 °C, 12 days) of the same compound?
Answer: 3

Question: What about the Number of tiller (0.01 mg/l, 1 °C, 12 days) of the same compound?
Answer: 3

Question: And the Weight of root (0.01 mg/l, 1 °C, 12 days)?
Answer: 3.9 g

Question: What about the Area of leaf (0.01 mg/l, 2 °C, 3 days) of the same compound?
Answer: 10.1 cm^2

Question: And the Height (0.01 mg/l, 2 °C, 3 days)?
Answer: 7.1 cm

Question: And the Weight of root (0.01 mg/l, 2 °C, 3 days)?
Answer: 2.8 g

Question: And the Area of leaf (0.01 mg/l, 2 °C, 6 days)?
Answer: 11 cm^2

Question: And the Height (0.01 mg/l, 2 °C, 6 days)?
Answer: 7.2 cm

Question: And the Weight of root (0.01 mg/l, 2 °C, 6 days)?
Answer: 3.1 g

Question: And the Area of leaf (0.01 mg/l, 2 °C, 9 days)?
Answer: 12.5 cm^2

Question: And the Height (0.01 mg/l, 2 °C, 9 days)?
Answer: 7.4 cm

Question: What about the Weight of root (0.01 mg/l, 2 °C, 9 days) of the same compound?
Answer: 3 g

Question: And the Area of leaf (0.01 mg/l, 2 °C, 12 days)?
Answer: 13.4 cm^2

Question: And the Height (0.01 mg/l, 2 °C, 12 days)?
Answer: 7.5 cm

Question: What about the Number of leaf (0.01 mg/l, 2 °C, 12 days) of the same compound?
Answer: 3

Question: What about the Number of tiller (0.01 mg/l, 2 °C, 12 days) of the same compound?
Answer: 3

Question: What about the Weight of root (0.01 mg/l, 2 °C, 12 days) of the same compound?
Answer: 3.2 g

Question: And the Area of leaf (0.01 mg/l, 3 °C, 3 days)?
Answer: 10.2 cm^2

Question: And the Height (0.01 mg/l, 3 °C, 3 days)?
Answer: 7.1 cm

Question: What about the Weight of root (0.01 mg/l, 3 °C, 3 days) of the same compound?
Answer: 2.5 g

Question: And the Area of leaf (0.01 mg/l, 3 °C, 6 days)?
Answer: 12 cm^2

Question: And the Height (0.01 mg/l, 3 °C, 6 days)?
Answer: 7.3 cm

Question: What about the Weight of root (0.01 mg/l, 3 °C, 6 days) of the same compound?
Answer: 2.7 g

Question: And the Area of leaf (0.01 mg/l, 3 °C, 9 days)?
Answer: 12.1 cm^2
